The results in this text go back to patent US20100056595A1, “Pyrazole Derivatives as P2X7 Modulators” (Glaxo Group Limited, priority 2007, published 2010).

The experiment addresses T1, human P2X7 receptor (Homo sapiens, UniProt Q99572).
T1 construct: expressed in transfected cells; host or cells: HEK293
T1 sequence (Q99572 1-595): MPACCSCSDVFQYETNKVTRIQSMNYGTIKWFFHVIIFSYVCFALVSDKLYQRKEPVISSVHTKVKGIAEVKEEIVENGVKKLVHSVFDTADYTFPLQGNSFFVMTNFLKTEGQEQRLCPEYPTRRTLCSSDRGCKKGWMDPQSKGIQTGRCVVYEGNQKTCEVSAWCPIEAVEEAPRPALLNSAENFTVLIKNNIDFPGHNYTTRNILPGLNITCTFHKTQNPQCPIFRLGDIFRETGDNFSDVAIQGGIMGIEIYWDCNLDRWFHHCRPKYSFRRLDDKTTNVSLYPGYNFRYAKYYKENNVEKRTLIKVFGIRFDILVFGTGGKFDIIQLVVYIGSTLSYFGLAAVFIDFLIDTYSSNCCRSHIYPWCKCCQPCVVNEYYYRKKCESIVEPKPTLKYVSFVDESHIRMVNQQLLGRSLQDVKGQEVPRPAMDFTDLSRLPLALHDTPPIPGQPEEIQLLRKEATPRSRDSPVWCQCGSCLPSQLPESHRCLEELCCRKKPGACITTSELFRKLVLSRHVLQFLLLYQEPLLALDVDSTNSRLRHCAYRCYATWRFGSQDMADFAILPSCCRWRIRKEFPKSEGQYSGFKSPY
Kind of experiment: Ethidium Accumulation Assay. Format: cell-based. The following applies: HEK293 cells expressing human recombinant P2X7 receptors; blocking ATP (1 mM) responses; read-out: pIC50 for human P2X7 receptor antagonist activity in the Ethidium Accumulation Assay (converted). As for the experimental part: Ethidium Accumulation Assay
Studies were performed using NaCl assay buffer of the following composition (in mM): 140 mM NaCl, HEPES 10, N-methyl-D-glucamine 5, KCl 5.6, D-glucose 10, CaCl2 0.5 (pH 7.4). HEK293 cells, expressing human recombinant P2X7 receptors, were grown in poly-L-lysine pretreated 96 well plates for 18-24 h. […] The cells were washed twice with 350 μl of assay buffer before addition of 50 μl of antagonist. The cells were then incubated at room temperature (19-21° C.) for 30 min before addition of ATP and ethidium (100 μM final assay concentration). The ATP concentration was chosen to be close to the EC80 for the receptor type and was 1 mM for studies on the human P2X7 receptor. Incubations were continued for 8 or 16 min and were terminated by addition of 25 μl of 1.3M sucrose containing 5 mM of the P2X7 receptor antagonist reactive black 5 (Aldrich). Cellular accumulation of ethidium was determined by measuring fluorescence (excitation wavelength of 530nm and emission wavelength of 620 nm) from below the plate with a Canberra Packard Fluorocount (Pangbourne, UK). Antagonist pIC50 values for blocking ATP responses were determined using iterative curve fitting techniques.

Structures are written as SMILES.

In the case of `Cc1cnn(C)c1CC(=O)NCc1cccc(C(F)(F)F)c1Cl` [Example 2, N-{[2-chloro-3-(trifluoromethyl)phenyl]methyl}-2-(1,4-dimethyl-1H-pyrazol-5-yl)acetamide], the IC50 was at most 100 nM.

As for `Cc1cnn(CC(F)(F)F)c1CC(=O)NCc1ccc(F)c(F)c1Cl` [Example 3, N-[(2-chloro-3,4-difluorophenyl)methyl]-2-[4-methyl-1-(2,2,2-trifluoroethyl)-1H-pyrazol-5-yl]acetamide], the IC50 is at most 100 nM.

For the compound `Cc1cnn(C)c1CC(=O)NCc1ccc(F)c(F)c1Cl` [Example 4, N-[(2-chloro-3,4-difluorophenyl)methyl]-2-(1,4-dimethyl-1H-pyrazol-5-yl)acetamide], the IC50 is at most 100 nM.

Regarding `Cn1nccc1CC(=O)NCc1cccc(C(F)(F)F)c1Cl` [Example 5, N-{[2-chloro-3-(trifluoromethyl)phenyl]methyl}-2-(1-methyl-1H-pyrazol-5-yl)acetamide], the IC50 was at most 100 nM.

For `Cn1ncc(Cl)c1CC(=O)NCc1cccc(C(F)(F)F)c1Cl` [Example 6, 2-(4-chloro-1-methyl-1H-pyrazol-5-yl)-N-{[2-chloro-3-(trifluoromethyl)phenyl]methyl}acetamide], the IC50 is at most 100 nM.

With `Cn1ncc(Br)c1CC(=O)NCc1cccc(C(F)(F)F)c1Cl` [Example 7, 2-(4-Bromo-1-methyl-1H-pyrazol-5-yl)-N-{[2-chloro-3-(trifluoromethyl)phenyl]methyl}acetamide], the IC50 was at most 100 nM.

As to `Cn1ncc(F)c1CC(=O)NCc1cccc(C(F)(F)F)c1Cl` [Example 8, N-{[2-chloro-3-(trifluoromethyl)phenyl]methyl}-2-(4-fluoro-1-methyl-1H-pyrazol-5-yl)acetamide], the IC50 was at most 100 nM.

Take `Cc1cnn(C)c1CC(=O)NCc1ccc(Cl)cc1Cl` [Example 10]: the IC50 is at most 100 nM.

For the compound `Cn1ncc(Cl)c1CC(=O)NCc1ccc(F)cc1Cl` [Example 14, N-[(2-Chloro-4-fluorophenyl)methyl]-2-(4-chloro-1-methyl-1H-pyrazol-5-yl)acetamide], the IC50 is at most 100 nM.

On to `Cn1ncc(Cl)c1CC(=O)NCc1ccc(F)c(F)c1Cl` [Example 15, N-[(2-Chloro-3,4-difluorophenyl)methyl]-2-(4-chloro-1-methyl-1H-pyrazol-5-yl)acetamide], for which the IC50 was at most 100 nM.

As to `Cn1ncc(Cl)c1CC(=O)NCc1ccc(Cl)cc1Cl` [Example 16, 2-(4-Chloro-1-methyl-1H-pyrazol-5-yl)-N-[(2,4-dichlorophenyl)methyl]acetamide], the IC50 is at most 100 nM.

On to `Cn1ncc(F)c1CC(=O)NCc1ccc(F)c(F)c1Cl` [Example 18, N-[(2-Chloro-3,4-difluorophenyl)methyl]-2-(4-fluoro-1-methyl-1H-pyrazol-5-yl)acetamide], for which the IC50 is at most 100 nM.

Consider `Cn1ncc(F)c1CC(=O)NCc1ccc(Cl)cc1Cl` [Example 19, N-[(2,4-Dichlorophenyl)methyl]-2-(4-fluoro-1-methyl-1H-pyrazol-5-yl)acetamide], for which the IC50 is at most 100 nM.

For the compound `Cn1ncc(I)c1CC(=O)NCc1ccc(Cl)cc1Cl` [Example 20, N-[(2,4-Dichlorophenyl)methyl]-2-(4-iodo-1-methyl-1H-pyrazol-5-yl)acetamide], the IC50 was at most 100 nM.
